Experimental data taken from a melting point compilation (Tetko et al.; mined from patent text by program, amines drawn as free bases though some values may be those of a salt).

SMILES	melting point
CCN(CC)CCCCC(=O)c1ccc2c(c1)Cc1cc(C(=O)CCCCN(CC)CC)ccc1-2	78 to 80 °C
COc1cccc2sc3cc(=O)ccc-3nc12	206 to 207 °C
O=C(/C=C/c1ccc(N2CCOCC2)cc1)CC(=O)/C=C/c1ccc2cc[nH]c2c1	93 to 97 °C
COc1ccc(C(C)C)cc1-c1cc(C(=O)NC2CCN(C(=O)OC(C)(C)C)C2)c(OCc2ccccc2)cc1OCc1ccccc1 (stereo not given)	151 to 154 °C
COc1cc2ncnc(N3CCc4c(Br)ccc(C)c43)c2cc1OC	223 to 225 °C
O=C(O)CCc1ccc2c(c1)OC[C@@H](Cc1ccccc1)[C@@H]2O (relative stereo)	161 to 162 °C
CCCCc1nc(Cl)c(CO)n1Cc1ccc(-c2ccccc2-c2n[nH]c(=O)o2)cc1	163 to 164 °C
COc1cn(-c2ccc(N3CCC(F)(F)CC3)cc2F)nc(-c2ccnn2-c2ccccc2)c1=O	192 to 194 °C
O=C(C=NO)Nc1cc(Cl)cc(Cl)c1	196 to 197 °C
NC1CCc2cc3c(cc2C1)OCC3 (stereo not given)	60 °C
O=C(C1=C(c2ccccc2)c2ccc(O)cc2C1)c1ccc(O)cc1	191 to 192 °C
CCn1ncc2c(OC)c3c(nc21)C(=O)c1ccccc1CC3	197 to 200 °C
COc1cccc2cc(CNCCNC(=O)C34CC5CC(CC(C5)C3)C4)oc12	105 to 110 °C
O=C(NCCN1CCCC1)c1ccc(=O)n(Cc2ccc(-c3ccccc3)cc2)c1	142 to 152 °C
COc1ccc(Cl)c(CC#N)c1	62 to 65 °C
COc1ccc(Oc2c(Br)cc(C#N)cc2Br)cc1Cc1ccc(=O)[nH]n1	214 to 216 °C
COc1cccc2c1CC1CC(CCN3CCC(c4c[nH]c5ccccc45)CC3)CN(C)C1C2 (stereo not given)	215 to 217 °C
Cc1cc(SC(C)C)c(NC(=O)CSc2nc3ccccc3o2)c(SC(C)C)n1	151 to 152 °C
Cc1c(C(N)=O)nc2c(=O)[nH]c3cc(C(F)(F)F)ccc3n12	> 250 °C
Cc1cn(-c2ccc(NC(=O)c3ccc(C)c(Nc4nccc(-c5cccnc5)n4)c3)cc2C(F)(F)F)cn1	154 to 163 °C
O=C(O)c1cc(F)cc(C(F)(F)F)c1O	76 to 83 °C
CC(=O)OC1CC2=CCC3C4CCCC4(C)CCC3C2(C)C(OC(C)=O)C1 (stereo not given)	163 to 165 °C
O=C1CCC(N2C(=O)c3ccc(CNC(=O)NC4CCCCC4)cc3C2=O)C(=O)N1 (stereo not given)	208 to 210 °C
N#CCc1nc(C(=O)c2ccc(Cl)cc2)no1	81 to 84 °C
Cc1cc2c(O)nc(O)nc2s1	> 300 °C

SMILES	melting point
Cc1ccc(C(=O)NC(CC(C)C)C(=O)O)c(SSc2cc(C)ccc2C(=O)NC(CC(C)C)C(=O)O)c1 (stereo not given)	216 to 218 °C
Cc1nc2cc3c(cc2s1)C1(CO3)C(=O)N(CCC(C)C)c2ccccc21 (stereo not given)	137 to 138 °C
N#CCCn1cccc1-c1ccc2cnc(Nc3cccc(N4CCCC4=O)c3)nn12	60 to 67 °C
CC(=O)c1ccc(-c2nc(=O)c3ccccc3s2)nc1	276 to 277 °C
CS(=O)(=O)c1ccc(C2=C(c3ccccc3)C(=O)c3ccccc32)cc1	167 to 168 °C
COC(=O)CCc1nc(C=O)ccc1OCCCC/C=C/c1ccc(OC)cc1	66 to 69 °C
CCCCCN(O)C(=O)Nc1ccc(Cl)c(Cl)c1	88 °C
CC(=O)NCC=C1CCc2ccc3nc(C)sc3c21	184 to 186 °C
NNC(=O)Cc1cc(C(=O)c2ccc(Br)cc2)sc1-c1ccccc1	157 to 161 °C
COc1ccc(NC(=O)OC(C)(C)C)c(C(=O)C2CC2)c1	96 to 97 °C
Nc1nc(-c2ccccc2)nc2c1=NCC(=O)N=2	330 to 332 °C
CC1=C(/C=C/C(C)=C/CO)C(C)(C)CC(O)C1=O (stereo not given)	85 to 86 °C
CCCc1c(OCCCSc2ccc(C(=O)OC)cn2)ccc(C(C)=O)c1O	66 to 68 °C
O=C(c1ccc(Cl)cc1)c1ccc(CSC(F)F)cc1	34 to 35 °C
c1ccc2c(c1)c1c(N3CCCC3)nc(N3CCCC3)nc1n2CCn1ccnc1	181 to 183 °C
CN(C(=O)c1ccc2nonc2c1)C1CCOC(O)C1 (stereo not given)	< 90 °C
O=C1CCC(c2c[nH]c3ncccc23)CC1	162 to 164 °C
O=C(O)C(C1CC(=O)N(C(=O)OCC(Cl)(Cl)Cl)O1)N1C(=O)c2ccccc2C1=O (stereo not given)	208 to 210 °C
COC(C)=CC(=O)Nc1ccccc1C	101 °C
CSc1ccc(C(=N)Nc2ccc(C)cc2)cc1	143 to 145 °C
O=c1n(CC(O)(Cn2cncn2)c2ccc(F)cc2F)cnn1-c1ccc(OC(F)(F)F)cc1 (racemic)	128 to 130 °C
Cc1nnc(SCC(=O)C23CC4CC(CC(C4)C2)C3)n1C(C)C	119 to 120 °C
CCOc1ccc(OCCCN2CCN(c3ccc(Cl)nn3)CC2)cc1	125 to 127 °C
COC(=O)c1ccc(S(C)(=O)=O)c(COc2ccnn2C)c1Cl	70 °C
CC(O)=C(C(=O)OCc1ccccc1)N1C(=O)[C@@H](N2C(=O)c3ccccc3C2=O)[C@H]1COS(C)(=O)=O	61 to 65 °C

SMILES	melting point
Nc1ncnc2c1ncn2Cc1oc2ccc(F)cc2c(=O)c1-c1cccc(F)c1	180 to 183 °C
Cc1cc2nc(Cl)c(Cl)nc2c([N+](=O)[O-])c1C	133 to 134 °C
O=C(O)c1c(OCCF)cccc1OCCF	57 to 58 °C
CCN1c2ncc(CC(=O)c3ccncc3)cc2C(=O)N(C)c2ccc(Cl)nc21	154 °C
N#CNC(=NC1CCN(Cc2ccccc2)CC1)N1CCOCC1	163 to 165 °C
O=C(OCc1ccc(Cl)cc1)c1ncccc1OCc1ccc(Cl)cc1	92 to 94 °C
CN1CCN(c2nc(-c3ccccc3)c3ccccc3n2)CC1	101 to 122 °C
COc1ccc(N=Nc2ccc(O)c(C(=O)Nc3ccc(OC)c(-c4nn(C(C)=O)c5cc(C)nn45)c3)c2)cc1	282 to 283 °C
O=C=NC1(c2ccccc2)CCC2(CC1)OCCO2	38 to 41 °C
CC(=O)OCC(=O)N(c1c(C)ccc2ccccc12)C1CCOC1=O (stereo not given)	50 to 70 °C
Cc1c(CN2CCC(c3c(Cl)cccc3Cl)CC2)[nH]c2ccccc12	139 to 141 °C
CN1CCN(CC2=NC(NC(=O)Nc3cccc(C#N)c3)C(=O)N(CC(=O)N(C)c3ccccc3)c3ccccc32)CC1 (stereo not given)	152 to 155 °C
CCC1(CC)NC(C)(C)CN(c2ccccc2)C1=O	54 to 56 °C
COc1cccc2c1CCCC2n1cc[nH]c1=S (stereo not given)	176 to 177 °C
NC(=O)C1(c2cccc(Br)c2)CCOCC1	245 to 247 °C
CS(=O)(=O)N1CCC(C(CS(=O)(=O)c2ccc(Oc3ccc(OC(F)(F)F)cc3)cc2)N(O)C=O)CC1 (stereo not given)	178 to 179 °C
Cn1nnnc1SCC(CS(=O)(=O)c1ccc(-c2ccc(Cl)cc2)cc1)C(=O)O (stereo not given)	98 to 100 °C
C[Si](C)(C)C#Cc1c(F)c(F)c(F)c(C#C[Si](C)(C)C)c1F	55 to 57 °C
O=C(Nc1ccc2ccccc2n1)c1ccc(COc2ccc3c(c2)CCC(CCN2CCCCC2)C3)cc1 (stereo not given)	135 to 138 °C
Nc1ccc(C2CCOCC2)cc1	122 °C
Cn1c(=O)n(CCCCI)c(=O)c2ccccc21	105 to 107 °C
COc1ccc(CC(=O)c2ccc(OC)c(F)c2)cc1F	151 to 152 °C
O=C(O)CCc1c(-c2ccccc2)noc1O	183 to 184 °C
O=c1nc(-c2cccc(Br)c2)sc2ccccc12	162 °C
N#Cc1ncn2c1N(C(=O)CN1CCN(C(c3ccccc3)c3ccc(Cl)cc3)CC1)CC=C2c1cccc(C(F)(F)F)c1 (stereo not given)	105 to 107 °C

SMILES	melting point
CC(C)(NC(=O)C(O)C(N)Cc1ccc(S(C)(=O)=O)cc1)C(=O)O (stereo not given)	220 to 222 °C
Cc1cc(OC23CC4CC(CC(C4)C2)C3)ccc1N	143 to 145 °C
N#Cc1ccc(OCc2ccsc2)cc1OC(C(=O)O)c1ccccc1F (racemic)	159 to 161 °C
CC(=O)SCCS(=O)(=O)N1CCC[C@H]1C(=O)OC(C)(C)C	46 to 50 °C
CN(C)S(=O)(=O)NC1CCC(CCN2CCN(c3nccc4c3OCC4)CC2)CC1 (stereo not given)	128 °C
CCC(=O)OCc1ccc(-c2[nH]c(-c3cccc4ccccc34)nc2C(=O)Nc2nccs2)cc1	281 to 283 °C
CCc1nn(C(=O)NS(=O)(=O)c2c(C)cccc2Cl)c(=O)n1C	176 °C
O[C@@H](CNCCOc1ccc2oc(-c3ccon3)cc2c1)COc1ccccc1C(F)(F)F	90 to 91 °C
O=C(Nc1ccccc1)O[C@@H]1CN=C(c2ccc([N+](=O)[O-])cc2)O[C@H]1c1ccccc1 (racemic)	148 °C
CC(C)(C)OC(=O)C1CCCN1Cc1ccc2cc(NC(=O)c3ccc(-c4ccc(Cl)cc4)cc3)ccc2n1 (stereo not given)	163 to 166 °C
O=C1CCN(CCCn2c(=O)[nH]c3ccccc32)CC1	134 to 136 °C
Cc1cc(C#C[Si](C)(C)C)ccc1-n1c(C(F)(F)F)nn(C)c1=S	90 to 93 °C
CCc1nc2c(N)nc3cccnc3c2n1CC1(O)CCOC1 (stereo not given)	234 to 236 °C
Cn1cc(C2=C(c3cn(CCCC#N)c4ccccc34)C(=O)NC2=O)c2ccccc21	245 to 247 °C
COC(=O)NC(=O)Nc1nc2c(C)cccc2s1	272 to 280 °C
N#Cc1cnc(Nc2ccc(CCn3ccnc3)cc2)nc1-c1ccccc1	210 to 211 °C
O=C1OC2(CCC2)C(O)=C1c1ccccc1	188 to 189 °C
CC(=O)SC1CN(C(=O)OCc2ccccc2)C1	94.5 to 95.5 °C
NC(=S)CCc1ccc([N+](=O)[O-])cc1	157 to 158 °C
COCOc1cc(F)ccc1-c1cc(-c2cccc(NC(=O)CN(C)C)c2)c(C#N)c(NC(=O)c2ccco2)n1	168 to 169 °C
Cc1cccc(OC(=O)C(=O)c2c[nH]c3ccccc23)c1	194 to 197 °C
CC(C)(C)OC(=O)NNC(=O)C=Cc1cc(=O)c(OCc2ccccc2)c[nH]1	141 °C
Nc1ncnc2c1nc(OC(=O)OCc1ccccc1)n2Cc1ccccc1	> 300 °C
O=C1NC(=O)C(=Cc2cccs2)N1	253 to 255 °C
CCC(C)(c1ccc(O)c(C)c1)c1ccc(O)c(C)c1	144 to 146 °C
